Test results as given in ChEMBL document CHEMBL1671726 (Antimicrob Agents Chemother, 2010).

What was measured:
Experiment in all cases: microbe, parasite or virus in culture
Plasmodium falciparum [1] = settings: F08B41, 72 h
Plasmodium falciparum [2] = settings: F09N29, 72 h
Plasmodium falciparum [3] = settings: F09N58, 72 h
Plasmodium falciparum [4] = settings: 72 h
Description: Antimicrobial activity against Plasmodium falciparum harboring pfnhe1 ms4760 haplotype 9 carrying 3 copies of DNNND repeat and His/Asp ratio 7:6 infected in human erythrocytes after 72 hrs by SYBR green I-based fluorescence assay

Plasmodium falciparum [5] = settings: F09A9, 72 h
Plasmodium falciparum [6] = settings: F08B7, 72 h
Plasmodium falciparum [7] = settings: K1, 72 h
Plasmodium falciparum [8] = settings: 72 h; remark: listed apart in the source
Description: Antimicrobial activity against Plasmodium falciparum harboring pfnhe1 ms4760 haplotype 35 carrying 1 copy of DNNND repeat and His/Asp ratio 5:2 infected in human erythrocytes after 72 hrs by SYBR green I-based fluorescence assay

Plasmodium falciparum [9] = settings: F07-42, 72 h
Plasmodium falciparum [10] = settings: F09N40, 72 h
Plasmodium falciparum [11] = settings: F07-3, 72 h
Plasmodium falciparum [12] = settings: F07-46, 72 h
Plasmodium falciparum [13] = settings: F08B27, 72 h
Plasmodium falciparum [14] = settings: F09A10, 72 h
Plasmodium falciparum [15] = settings: F09A55, 72 h
Plasmodium falciparum [16] = settings: F08B40, 72 h
Plasmodium falciparum [17] = settings: F07-31, 72 h
Plasmodium falciparum [18] = settings: F09A54, 72 h
Plasmodium falciparum [19] = settings: F09A41, 72 h
Plasmodium falciparum [20] = settings: F09N64, 72 h
Plasmodium falciparum [21] = settings: F07-23, 72 h
Plasmodium falciparum [22] = settings: F07-8, 72 h
Plasmodium falciparum [23] = settings: F08B2, 72 h
Plasmodium falciparum [24] = settings: F08B53, 72 h
Plasmodium falciparum [25] = settings: F07-13, 72 h
Plasmodium falciparum [26] = settings: 72 h; remark: listed apart in the source
Description: Antimicrobial activity against Plasmodium falciparum harboring pfnhe1 ms4760 haplotype 3 carrying 1 copy of DNNND repeat and His/Asp ratio 6:2 infected in human erythrocytes after 72 hrs by SYBR green I-based fluorescence assay

Plasmodium falciparum [27] = settings: F09N35, 72 h
Plasmodium falciparum [28] = settings: F07-7, 72 h
Plasmodium falciparum [29] = settings: F08B61, 72 h
Plasmodium falciparum [30] = settings: F09N6, 72 h
Plasmodium falciparum [31] = settings: F09A61, 72 h
Plasmodium falciparum [32] = settings: F07-35, 72 h
Plasmodium falciparum [33] = settings: F07-28, 72 h
Plasmodium falciparum [34] = settings: F09N66, 72 h
Plasmodium falciparum [35] = settings: F08B9, 72 h
Plasmodium falciparum [36] = settings: W2, 72 h

C=C[C@H]1CN2CC[C@H]1C[C@H]2[C@H](O)c1ccnc2ccc(OC)cc12 [QUININE]
IC50 (Plasmodium falciparum [1]): 886 nM
IC50 (Plasmodium falciparum [2]): 853 nM
IC50 (Plasmodium falciparum [3]): 448 nM
IC50 (Plasmodium falciparum [4]): 837 nM
IC50 (Plasmodium falciparum [5]): 562 nM
IC50 (Plasmodium falciparum [6]): 1100 nM
IC50 (Plasmodium falciparum [7]): 407 nM
IC50 (Plasmodium falciparum [8]): 260 nM
IC50 (Plasmodium falciparum [9]): 388 nM
IC50 (Plasmodium falciparum [10]): 2120 nM
IC50 (Plasmodium falciparum [11]): 875 nM
IC50 (Plasmodium falciparum [12]): 894 nM
IC50 (Plasmodium falciparum [13]): 870 nM
IC50 (Plasmodium falciparum [14]): 716 nM
IC50 (Plasmodium falciparum [15]): 149 nM
IC50 (Plasmodium falciparum [16]): 260 nM
IC50 (Plasmodium falciparum [17]): 433 nM
IC50 (Plasmodium falciparum [18]): 243 nM
IC50 (Plasmodium falciparum [19]): 1300 nM
IC50 (Plasmodium falciparum [20]): 475 nM
IC50 (Plasmodium falciparum [21]): 447 nM
IC50 (Plasmodium falciparum [22]): 874 nM
IC50 (Plasmodium falciparum [23]): 1020 nM
IC50 (Plasmodium falciparum [24]): 468 nM
IC50 (Plasmodium falciparum [25]): 365 nM
IC50 (Plasmodium falciparum [26]): 223 nM
IC50 (Plasmodium falciparum [27]): 905 nM
IC50 (Plasmodium falciparum [28]): 456 nM
IC50 (Plasmodium falciparum [29]): 1130 nM
IC50 (Plasmodium falciparum [30]): 710 nM
IC50 (Plasmodium falciparum [31]): 373 nM
IC50 (Plasmodium falciparum [32]): 821 nM
IC50 (Plasmodium falciparum [33]): 473 nM
IC50 (Plasmodium falciparum [34]): 711 nM
IC50 (Plasmodium falciparum [35]): 218 nM
IC50 (Plasmodium falciparum [36]): 720 nM
